This note sets out measurements from US20230117324A1, “OXAZINE MONOACYLGLYCEROL LIPASE (MAGL) INHIBITORS” (Hoffmann-La Roche Inc., priority 2018, published 2023).

pIC50: −log10 of the molar value.

The assay concerns the target T1, MAGL (Homo sapiens, UniProt Q99685).
T1 sequence (Q99685 1-303): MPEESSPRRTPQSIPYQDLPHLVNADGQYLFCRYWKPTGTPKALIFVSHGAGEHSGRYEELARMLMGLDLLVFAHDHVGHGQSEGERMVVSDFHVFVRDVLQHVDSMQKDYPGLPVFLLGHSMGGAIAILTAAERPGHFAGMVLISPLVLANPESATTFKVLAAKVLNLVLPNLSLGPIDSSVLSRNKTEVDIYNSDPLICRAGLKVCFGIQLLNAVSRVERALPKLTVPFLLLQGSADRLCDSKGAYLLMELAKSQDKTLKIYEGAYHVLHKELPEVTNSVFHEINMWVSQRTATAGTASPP
Put plainly: MAGL inhibition, 2-AG assay (hydrolysis of 2-arachidonoylglycerol, arachidonic acid by mass spectrometry). The assay is classed as biochemical. Conditions: 2-AG assay (footnote [b]). The protocol:
Alternatively, compounds were profiled for MAGL inhibitory activity by determining the enzymatic activity by following the hydrolysis of the natural substrate 2-arachidonoylglycerol (2-AG) resulting in arachidonic acid, which can be followed by mass spectrometry. This assay is hereinafter abbreviated “2-AG assay”.
The 2-AG assay was carried out in 384 well assay plates (PP, Greiner Cat #784201) in a total volume of 20 μL. Compound dilutions were made in 100% DMSO (VWR Chemicals 23500.297) in a polypropylene plate in 3-fold dilution steps to give a final concentration range in the assay from 12.5 μM to […]. 0.25 μL compound dilutions (100% DMSO) were added to 9 μL MAGL in assay buffer (50 mM TRIS (GIBCO, 15567-027), 1 mM EDTA (Fluka, 03690-100 mL), 0.01% (v/v) Tween. After shaking, the plate was incubated for 15 min at RT. To start the reaction, 10 μL 2-arachidonoylglycerol in assay buffer was added. The final concentrations in the assay was […] and 8 μM 2-arachidonoylglyerol. After shaking and 30 min incubation at RT, the reaction was quenched by the addition of 40 μL of ACN containing 4 μM of d8-arachidonic acid. The amount of arachidonic acid was traced by an online SPE system (Agilent Rapidfire) coupled to a triple quadrupole mass spectrometer (Agilent 6460). A C18 SPE cartridge (G9205A) was used in an ACN/water liquid setup. The mass spectrometer was operated in negative electrospray mode following the mass transitions 303.1→259.1 for arachidonic acid and 311.1→267.0 for d8-arachidonic acid. The activity of the compounds was calculated based on the ratio of intensities [arachidonic acid/d8-arachidonic acid].
The term pIC50 denotes the IC50 on a negative log10 scale, so that one unit is a factor of ten. A lower pIC50 goes with a high IC50. In the case of `O=C1CO[C@H]2CCN(C(=O)N3CC(c4ccc(-c5ccccc5)c(Cl)c4)C3)C[C@H]2N1` [Example 131, (4aR,8aS)-6-(3-(2-Chloro-[1,1′-biphenyl]-4-yl)azetidine-1-carbonyl)hexahydro-2H-pyrido[4,3-b][1,4]oxazin-3(4H)-one], the negative-log IC50 (pIC50) is 9.40.
To `Cn1ncc2ccc(C3CN(C(=O)N4CC[C@@H]5OCC(=O)N[C@@H]5C4)C3)cc21` [Example 220, (4aR,8aS)-6-(3-(1-Methyl-1H-indazol-6-yl)azetidine-1-carbonyl)hexahydro-2H-pyrido[4,3-b][1,4]oxazin-3(4H)-one] belongs 6.38; to `O=C1CO[C@H]2CCN(C(=O)N3CCN(c4ccc(Br)cc4)CC3)C[C@H]2N1` [Example 168, (4aR,8aS)-6-(4-(4-Bromophenyl)piperazine-1-carbonyl)hexahydro-2H-pyrido[4,3-b][1,4]oxazin-3(4H)-one], 5.43.
In the case of `O=C1CO[C@H]2CCN(C(=O)N3CC(c4cccc(OC(F)(F)F)c4)C3)C[C@H]2N1` [Example 171, (4aR,8aS)-6-(3-(3-(Trifluoromethoxy)phenyl)azetidine-1-carbonyl)hexahydro-2H-pyrido[4,3-b][1,4]oxazin-3(4H)-one] it was 7.36; in that of `O=C1CO[C@H]2CCN(C(=O)N3CC(c4ccc(OC(F)(F)F)c(Cl)c4)C3)C[C@H]2N1` [Example 211, (4aR,8aS)-6-(3-(3-Chloro-4-(trifluoromethoxy)phenyl)azetidine-1-carbonyl)hexahydro-2H-pyrido[4,3-b][1,4]oxazin-3(4H)-one], 7.96; in that of `O=C1CO[C@H]2CCN(C(=O)N3CC(c4ccc(-c5ccc(Cl)cc5Cl)cn4)C3)C[C@H]2N1` [Example 193, (4aR,8aS)-6-(3-(5-(2,4-Dichlorophenyl)pyridin-2-yl)azetidine-1-carbonyl)hexahydro-2H-pyrido[4,3-b][1,4]oxazin-3(4H)-one], 9.00.
To `O=C1CO[C@H]2CCN(C(=O)N3CC(c4ccc(OCC5(C(F)(F)F)CC5)cc4)C3)C[C@H]2N1` [Example 244, (4aR,8aS)-6-[3-[4-[[1-(Trifluoromethyl)cyclopropyl]methoxy]phenyl]azetidine-1-carbonyl]-4,4a,5,7,8,8a-hexahydropyrido[4,3-b][1,4]oxazin-3-one] belongs 9.52; to `COc1ccc(C(c2ccncc2)C2CCN(C(=O)N3CC[C@@H]4OCC(=O)N[C@@H]4C3)CC2)cc1OC` (single isomer, unassigned) [Example 150, (4aR,8aS)-6-[4-[(S or R)-(3,4-Dimethoxyphenyl)-(4-pyridyl)methyl]piperidine-1-carbonyl]-4,4a,5,7,8,8a-hexahydropyrido[4,3-b][1,4]oxazin-3-one], 8.10.
On to `CC(c1ccc(C(F)(F)F)cc1)C1CN(C(=O)N2CC[C@@H]3OCC(=O)N[C@@H]3C2)C1` (stereo partly drawn) [Example 83, (4aR,8aS)-6-[3-[1-[4-(Trifluoromethyl)phenyl]ethyl]azetidine-1-carbonyl]-4,4a,5,7,8,8a-hexahydropyrido[4,3-b][1,4]oxazin-3-one], for which the negative-log IC50 (pIC50) is 6.94.
Consider `CC(Oc1ccc(C2CN(C(=O)N3CC[C@@H]4OCC(=O)N[C@@H]4C3)C2)cc1)C(F)(F)F` (single isomer, unassigned) [Example 246, (4aR,8aS)-6-[3-(R or S)-[4-(2,2,2-Trifluoro-1-methyl-ethoxy)phenyl]azetidine-1-carbonyl]-4,4a,5,7,8,8a-hexahydropyrido[4,3-b][1,4]oxazin-3-one], for which the pIC50 is 9.00. Compared with the last compound, the pIC50 is 2.06 log units higher.
In the case of `COc1ccc(C(c2ccc(F)cc2)C2CCN(C(=O)N3CC[C@@H]4OCC(=O)N[C@@H]4C3)CC2)cc1` (single isomer, unassigned) [Example 89, (4aR,8aS)-6-(4-((R or S)-(4-Fluorophenyl)(4-methoxyphenyl)methyl)piperidine-1-carbonyl)hexahydro-2H-pyrido[4,3-b][1,4]oxazin-3(4H)-one] it was 9.22; in that of `O=C1CO[C@H]2CCN(C(=O)N3CC(C(O)(c4ccc(F)cc4)c4ccc(F)cc4)C3)C[C@H]2N1` [Example 54, (4aR,8aS)-6-(3-(Bis(4-fluorophenyl)(hydroxy)methyl)azetidine-1-carbonyl)hexahydro-2H-pyrido[4,3-b][1,4]oxazin-3(4H)-one], 6.09; in that of `O=C1CO[C@H]2CCN(C(=O)N3CC(c4ccc(N5CC6CCC(C5)O6)cc4)C3)C[C@H]2N1` [Example 192, (4aR,8aS)-6-(3-(4-(8-Oxa-3-azabicyclo[3.2.1]octan-3-yl)phenyl)azetidine-1-carbonyl)hexahydro-2H-pyrido[4,3-b][1,4]oxazin-3(4H)-one], 8.10.
To `O=C1CO[C@H]2CCN(C(=O)N3CC(C(F)(c4ccc(F)cc4)c4ccc(F)cc4)C3)C[C@H]2N1` [Example 55, (4aR,8aS)-6-(3-(Fluorobis(4-fluorophenyl)methyl)azetidine-1-carbonyl)hexahydro-2H-pyrido[4,3-b][1,4]oxazin-3(4H)-one] belongs 6.38; to `O=C1CO[C@H]2CCN(C(=O)N3CC(c4ccc(N5CCC(C(F)(F)F)C5)cn4)C3)C[C@H]2N1` (single isomer, unassigned) [Example 272, (4aR,8aS)-6-(3-(5-((S or R)-3-(Trifluoromethyl)pyrrolidin-1-yl)pyridin-2-yl)azetidine-1-carbonyl)hexahydro-2H-pyrido[4,3-b][1,4]oxazin-3(4H)-one], 7.77.
In the case of `CC(Oc1ccc(C(F)(F)F)cc1F)C1CN(C(=O)N2CC[C@@H]3OCC(=O)N[C@@H]3C2)C1` (single isomer, unassigned) [Example 96, (4aR,8aS)-6-(3-((R or S)-1-(2-Fluoro-4-(trifluoromethyl)phenoxy)ethyl)azetidine-1-carbonyl)hexahydro-2H-pyrido[4,3-b][1,4]oxazin-3(4H)-one] it was 7.36.
`O=C1CO[C@H]2CCN(C(=O)N3CCC(N4Cc5cccc(Cl)c5C4)CC3)C[C@H]2N1` [Example 264, (4aR,8aS)-6-[4-(4-Chloroisoindolin-2-yl)piperidine-1-carbonyl]-4,4a,5,7,8,8a-hexahydropyrido[4,3-b][1,4]oxazin-3-one] showed a pIC50 of 6.84.
Take `O=C1CO[C@H]2CCN(C(=O)N3CC(c4ccc(-c5ccccc5OC(F)(F)F)cc4)C3)C[C@H]2N1` [Example 121, (4aR,8aS)-6-(3-(2′-(Trifluoromethoxy)-[1,1′-biphenyl]-4-yl)azetidine-1-carbonyl)hexahydro-2H-pyrido[4,3-b][1,4]oxazin-3(4H)-one]: the pIC50 is 10.52.
In the case of `O=C1CO[C@H]2CCN(C(=O)N3CCC(C(c4ccc(F)cc4)c4nc(C5CC5)no4)CC3)C[C@H]2N1` (single isomer, unassigned) [Example 94, (4aR,8aS)-6-(4-((R or S)-(3-Cyclopropyl-1,2,4-oxadiazol-5-yl)(4-fluorophenyl)methyl)piperidine-1-carbonyl)hexahydro-2H-pyrido[4,3-b][1,4]oxazin-3(4H)-one], the pIC50 was 8.70.
In the case of `O=C1CO[C@H]2CCN(C(=O)N3CC(c4ccc(OC(F)(F)F)c(F)c4)C3)C[C@H]2N1` [Example 202, (4aR,8aS)-6-(3-(3-Fluoro-4-(trifluoromethoxy)phenyl)azetidine-1-carbonyl)hexahydro-2H-pyrido[4,3-b][1,4]oxazin-3(4H)-one] it was 7.92; in that of `NCCOc1cccc(C(c2ccccc2)C2CCN(C(=O)N3CC[C@@H]4OCC(=O)N[C@@H]4C3)CC2)c1` (stereo partly drawn) [Example 252, (4aR,8aS)-6-[4-[[3-(2-Aminoethoxy)phenyl]-phenyl-methyl]piperidine-1-carbonyl]-4,4a,5,7,8,8a-hexahydropyrido[4,3-b][1,4]oxazin-3-one], 8.70.
In the case of `CS(=O)(=O)c1cccc(C(c2cccnc2)C2CCN(C(=O)N3CC[C@@H]4OCC(=O)N[C@@H]4C3)CC2)c1` (single isomer, unassigned) [Example 175, (4aR,8aS)-6-[4-[(R or S)-(3-methylsulfonylphenyl)-(3-pyridyl)methyl]piperidine-1-carbonyl]-4,4a,5,7,8,8a-hexahydropyrido[4,3-b][1,4]oxazin-3-one] it was 6.94.
On to `Cc1ccc(C(c2ccccc2)C2CCN(C(=O)N3CC[C@@H]4OCC(=O)N[C@@H]4C3)CC2)cc1` (single isomer, unassigned) [Example 85, (4aR,8aS)-6-(4-((R or S)-Phenyl(p-tolyl)methyl)piperidine-1-carbonyl)hexahydro-2H-pyrido[4,3-b][1,4]oxazin-3(4H)-one], for which the pIC50 is 10.00.
